# Experimental data published in patent publication US20170173134A1 (priority 2011, published 2017).
# Like-named read-outs stand apart in the source and are kept apart here.
# Assays:
# [1] = system: MNU-induced bladder cancer; format: in vivo, female Fischer 344 rats
# [2] = n = 10
# [3] = in vivo; cited from earlier work
# [4] = system: MNU-induced urinary bladder carcinoma; experiment: Second experiment (Table 5): histological assessment, MNU-induced bladder cancer; format: in vivo, rats
# Experimental: The therapeutic effect in urinary bladder cancer in animals was assessed by histological evaluation of the tissues. The criteria for assessing normality of the tissues examined for all the experiments using the same animal model, that is, the experiments reported in Table 4, Table 5, Table 6-A, Table 6-B, Table 6-C and Table 6-D are: normal tissue, flat hyperplasia, papillary hyperplasia.
# Flat hyperplasia and papillary hyperplasia are reactive changes of an inflammatory nature, though benign, and their occurrence in the experiments for assessment of new drugs in animals affected with cancer, indicates a reversal of the cancer process to non-cancerous stages.
# Metaplasia is defined as the replacement of a normal functional tissue with another tissue with different structure, with loss of function, and, thus, is considered a form of premalignant lesion.
# […] animals (n=50) were used in the experiment. The therapeutic effect was assessed through histological assessment of tissues, and the toxicological effect of the compounds, through assessment of the presence or absence of urinary bleeding also called hematuria.
# All the animals in the experiment were subjected to intravesical applications of 1.5 mg/kg of n-methyl-n-nitrosourea (MNU) dissolved in 0.30 mL of sodium citrate, using a catheter, for 7 weeks. One group (control) of 10 animals was given only saline solution ([…]), also intravesically and for an equal period.
# The purpose of using n-methyl-n-nitrosourea (MNU) was to experimentally induce immunosuppression and subsequently producing urinary bladder carcinoma. After treatment with MNU, the animals were divided into 05 groups of 10 animals each.
# After this procedure, all the 10 animals of each group were sacrificed and their urinary bladders were removed for collection of tissue fragments, which were embedded in paraffin and prepared for histological section, by the usual techniques.
# For the histological examinations, sections (2 μm) of the tissue of the urinary bladder were cut using microtome Zeiss, mounted on microscope slides, and stained with hematoxylin-eosin (HE), for subsequent pathology assessment, quantification of cellular changes and comparison between control and treatment groups.
# [5] = system: MNU-induced cancerous lesions of the urinary bladder; format: in vivo, Fischer 344 rats
# bladder cancer = settings: human, in vivo; cited from earlier work
# [6] = 10 mg/kg intravesical, 14 weeks; n = 10
# [7] = system: MNU-induced urinary bladder carcinoma; parameters: species or system rats; settings: rat, in vivo
# [8] = system: bladder cancer induced by MNU; parameters: species or system Fischer rats; settings: rat, in vivo
# [9] = rat, in vivo
# [10] = Table 5 experiment, intravesical
# [11] = MNU-induced bladder cancer, 10 mg/kg intravesical (topical application), 14 weeks, n = 10
compound,measurement,setting,value
CC(=O)O[C@@]12CO[C@@H]1C[C@H](O)[C@@]1(C)C(=O)[C@H](O)C3=C(C)[C@@H](OC(=O)[C@H](O)[C@@H](NC(=O)OC(C)(C)C)c4ccccc4)C[C@@](O)([C@@H](OC(=O)c4ccccc4)[C@H]21)C3(C)C [Docetaxel],"Flat hyperplasia, number of animals","[1]; rat, in vivo",1
same,"High-grade intraepithelial carcinoma (carcinoma in situ-Tis), number of animals","[1]; rat, in vivo",3
same,"Low grade Intraepithelial neoplasia, number of animals","[1]; rat, in vivo",2
same,"Normal, number of animals","[1]; rat, in vivo",1
same,"Papillary carcinoma (Ta), number of animals","[1]; rat, in vivo",1
same,"Papillary hyperplasia, number of animals","[1]; rat, in vivo",1
same,"Squamous metaplasia, number of animals","[1]; rat, in vivo",1
same,success rate / responders,"[1]; rat, in vivo",20%
same,"Toxicology: (Hematuria), number of animals positive",[2],+10
COc1cccc2c1C(=O)c1c(O)c3c(c(O)c1C2=O)C[C@@](O)(C(=O)CO)C[C@@H]3O[C@H]1C[C@H](N)[C@H](O)[C@H](C)O1 [Doxorubicin],"Allergic reaction, (%) patients affected",[3],1%
same,"Chemical cystitis, (%) patients affected",[3],25%
Nc1ccn([C@@H]2O[C@H](CO)[C@@H](O)C2(F)F)c(=O)n1 [Gemcitabine],"Flat hyperplasia, number of animals",[1]; n = 10,2
same,"High-grade intraepithelial carcinoma (carcinoma in situ-Tis), number of animals",[1]; n = 10,4
same,"Low grade Intraepithelial neoplasia, number of animals",[1]; n = 10,2
same,"Papillary hyperplasia, number of animals",[1]; n = 10,2
same,success rate / responders,"[1]; rat, in vivo",40%
same,"Toxicology: (Hematuria), number of animals in which absent",[2],in 06
same,"Toxicology: (Hematuria), number of animals positive",[2],+in 04
CO[C@@]12[C@H](COC(N)=O)C3=C(C(=O)C(C)=C(N)C3=O)N1C[C@@H]1N[C@@H]12 [Mitomycin C],animals that had cancer after treatment,[4]; [10],50%
same,"Flat hyperplasia, animals",[5]; n = 10,1(10%)
same,"High-grade intraepithelial carcinoma (carcinoma in situ-Tis), animals",[5]; n = 10,3(30%)
same,"Low-grade intraepithelial carcinoma, animals",[5]; n = 10,6(60%)
same,"Normal, animals",[5]; n = 10,0%
same,patients with no recurrence of cancer during the follow-up period,bladder cancer,19%
same,recurrence rate after 5 years,bladder cancer,64%
same,"Bladder contraction, (%) patients affected",[3],<2%
same,"Hematuria, (%) patients affected",[3],10%
same,"Myelosuppression, (%) patients affected",[3],<10%
S=P(N1CC1)(N1CC1)N1CC1 [Thiotepa],"Chemical cystitis, (%) patients affected",[3],20%
same,"Myelosuppression, (%) patients affected",[3],10%
"CCCCC(=O)OCC(=O)[C@]1(O)Cc2c(O)c3c(c(O)c2[C@@H](O[C@H]2C[C@H](NC(=O)C(F)(F)F)[C@H](O)[C@H](C)O2)C1)C(=O)c1c(OC)cccc1C3=O [Valrubicin, N-trifluoroacetyladriamycin-14-valerate]","High grade intraepithelial neoplasia (carcinoma in situ-Tis), animals",[4]; [11],2 (20%) n (%)
same,"Low grade intraepithelial neoplasia, animals",[4]; [11],5 (50%) n (%)
same,"Normal, animals",[4]; [11],1 (10%) n (%)
same,"Papillary carcinoma (Ta), animals",[4]; [11],1 (10%) n (%)
same,"Squamous metaplasia, animals",[4]; [11],1 (10%) n (%)
same,therapeutic effectiveness / efficacy,[4]; [10],10%
same,"Flat hyperplasia, animals",[5]; n = 10,1(10%)
same,"High-grade intraepithelial carcinoma (carcinoma in situ-Tis), animals",[5]; n = 10,2(20%)
same,"Low-grade intraepithelial carcinoma, animals",[5]; n = 10,4(40%)
same,"Papillary carcinoma (Ta), animals",[5]; n = 10,1(10%)
same,"Papillary hyperplasia, animals",[5]; n = 10,1(10%)
same,"Squamous metaplasia, animals",[5]; n = 10,1(10%)
same,Toxicology: (Hematuria),[6],Positive
same,"Toxicology: (Hematuria), % of animals",[6],(100%)
same,"Toxicology: Presence of hematuria, number of animals","Fischer 344, rat, in vivo",N = 10
same,Toxicology: Presence of hematuria,n = 10,Positive
same,"Toxicology: Presence of hematuria, % of animals",n = 10,100%
same,patients treated in whom results are seen,bladder cancer,20%
Bacillus Calmette-Guérin [BCG],animals with positive result / positive outcome (histopathology),[7],40%
same,"Flat hyperplasia, animals","[5]; rat, in vivo",2(20%)
same,"High-grade intraepithelial carcinoma (carcinoma in situ-Tis), animals","[5]; rat, in vivo",2(20%)
same,"Low-grade intraepithelial carcinoma, animals","[5]; rat, in vivo",3(30%)
same,"Normal, animals","[5]; rat, in vivo",0%
same,"Papillary hyperplasia, animals","[5]; rat, in vivo",2(20%)
same,"Squamous metaplasia, animals","[5]; rat, in vivo",1(10%)
same,"Flat hyperplasia, number of animals","[1]; rat, in vivo",2
same,"High-grade intraepithelial carcinoma (carcinoma in situ-Tis), number of animals","[1]; rat, in vivo",3
same,"Low grade Intraepithelial neoplasia, number of animals","[1]; rat, in vivo",2
same,"Normal, number of animals","[1]; rat, in vivo",0
same,"Papillary carcinoma (Ta), number of animals","[1]; rat, in vivo",1
same,"Papillary hyperplasia, number of animals","[1]; rat, in vivo",2
same,animals with recurrent/refractory malignant lesions,"[1]; rat, in vivo",06
same,success rate / responders,"[1]; rat, in vivo",40%
same,"Flat hyperplasia, number of animals",[8],1
same,"High-grade Intraurothelial Neoplasia - Carcinoma in situ (pTis), number of animals",[8],1
same,"Low-grade Intraurothelial Neoplasia, number of animals",[8],1
same,"Normal, number of animals",[8],1
same,"Papillary Carcinoma (pTa), number of animals",[8],2
same,"Papillary hyperplasia, number of animals",[8],3
same,"Urothelial carcinoma with lamina propria invasion (pT1), number of animals",[8],2
same,recurrent or refractory / malignant lesions,[8],83%
same,recurrent or refractory lesions,[8],17%
same,responders,[8],83%
same,responders (absence of malignant lesions),[8],17%
same,Toxicology: (Hematuria),[9],Positive
same,"Toxicology: (Hematuria), % of animals",[9],(100%)
same,"degree of hematuria moderate, % of animals",[9],80%
same,"degree of hematuria severe, % of animals",[9],20%
same,Toxicology: Presence of hematuria,"rat, in vivo",Positive
same,"Toxicology: Presence of hematuria, % of animals","rat, in vivo",(100%)
same,"Toxicology: Presence of hematuria, number of animals","rat, in vivo",n = 10
same,patients with no recurrence of cancer during the follow-up period,bladder cancer,39%
same,rate of recurrence after 5 years (SWOG 8507),bladder cancer,60%
same,recurrence rate after 5 years,bladder cancer,34%
same,relapse among patients who respond well in the early days,bladder cancer,30%
same,"patients affected by local toxicity (cystitis, macroscopic haematuria)",[3],up to 75%
same,"patients with unwanted side effects (irritation, haematuria, dysuria)",[3],around 90%
same,withdrawal from treatment because of local toxicity,[3],around 15%
